Assay results: paper PMC8167934 (Cancer letters, 2021)

How the values were obtained:
[1] = biological target: thioesterase (TE) domain of FASN (Homo sapiens, UniProt P49327); assay: TE activity assay with recombinant TE; conditions: recombinant TE 500 nM
[2] = system: breast cancer patients; assay: Retrospective EMR analysis of overall survival of breast cancer patients; format: in vivo, human
[3] = system: MCF7/FASN cells; assay: Colony formation assay, MCF7 cells with ectopic FASN over-expression; format: cell-based, human; conditions: ectopic FASN over-expression vs MCF7/Vec
[4] = system: M3K/Sh cells; assay: Colony formation assay, MCF7/AdVp3000 cells with FASN knockdown; format: cell-based, human; conditions: FASN knockdown vs M3K/Scr
[5] = system: PARP1 expression; assay: Western blot analysis of PARP1 expression; format: cell-based, human; conditions: MCF7, T47D, MDA-MB-231 and MDA-MB-468 cells, different concentrations
[6] = system: NHEJ activity in MCF7 cells; assay: Host cell reactivation assay of NHEJ activity, MCF7; format: cell-based, human
[7] = system: NHEJ activity in MDA-MB-468 cells; assay: Host cell reactivation assay of NHEJ activity, MDA-MB-468; format: cell-based, human; conditions: 10 µM twice a day for three days
[8] = system: homologous recombination activity; assay: Host cell reactivation assay of homologous recombination activity; format: cell-based, human; conditions: 10 µM twice a day for three days
[9] = system: γ-H2AX in MCF7 cells; assay: γ-H2AX level; format: cell-based, human
[10] = system: γ-H2AX in MDA-MB-468 cells; assay: γ-H2AX level; format: cell-based, human
[11] = system: MCF7 cells; assay: Flow cytometry of apoptosis and cell cycle, MCF7; format: cell-based, human
[12] = system: MDA-MB-468 cells; assay: Flow cytometry of apoptosis and cell cycle, MDA-MB-468; format: cell-based, human
[13] = system: MCF7 cells; assay: Colony formation combination study with doxorubicin; format: cell-based, human; conditions: combination with doxorubicin at potency ratios 50/50, 25/75, 75/25
[14] = system: MDA-MB-468 cells; assay: as above; format: cell-based, human; conditions: combination with doxorubicin at potency ratios 50/50, 25/75, 75/25
[15] = system: MCF7 cells; assay: Colony formation combination with ionizing radiation, MCF7; format: cell-based, human; conditions: pre-treated with 10 µM once a day for 3 days
[16] = system: MDA-MB-468 cells; assay: Colony formation combination with ionizing radiation, MDA-MB-468; format: cell-based, human; conditions: pre-treated with 10 µM once a day for 3 days
[17] = system: TNBC patients; conditions: high dose omeprazole added to neoadjuvant TNBC treatment; cited from earlier work
[18] = system: db/+ and db/db mice; conditions: chronic use, cited from earlier work
[19] = esomeprazole users vs omeprazole users, pairwise comparison
[20] = users of the PPI vs non-PPI users
[21] = 10–20 mg users vs non-PPI users

thioesterase (TE) domain of FASN, sequence (P49327 2207-2511 limits assumed): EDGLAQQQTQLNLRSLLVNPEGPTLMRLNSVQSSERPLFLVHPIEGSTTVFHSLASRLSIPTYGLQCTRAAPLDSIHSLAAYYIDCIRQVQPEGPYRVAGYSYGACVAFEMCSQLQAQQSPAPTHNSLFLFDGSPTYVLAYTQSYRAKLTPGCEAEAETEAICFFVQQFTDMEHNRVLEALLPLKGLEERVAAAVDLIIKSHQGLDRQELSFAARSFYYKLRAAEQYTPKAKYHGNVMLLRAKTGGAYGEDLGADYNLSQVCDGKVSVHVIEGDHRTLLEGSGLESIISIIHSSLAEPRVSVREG

Cc1c(OCC(F)(F)F)ccnc1C[S@@+]([O-])c1nc2ccccc2[nH]1 [R-lansoprazole, dexlansoprazole]
Inhibition of TE activity of FASN (Ki), enantiomer comparison [1]: significantly more effective than the S-lansoprazole

COc1ccc2nc([S@@+]([O-])Cc3ncc(C)c(OC)c3C)[nH]c2c1 [esomeprazole]
Overall survival, multivariant HR ([2]; 20 mg users vs non-PPI users): 0.73
Overall survival, univariant HR ([2]; 20 mg users vs non-PPI users): 1.0
Overall survival, multivariant HR ([2]; 40 mg users vs non-PPI users): 0.33
Overall survival, univariant HR ([2]; 40 mg users vs non-PPI users): 0.3
Overall survival, multivariate HR [2, 19]: 1.64
Overall survival, univariate HR [2, 19]: 1.62
Overall survival, univariate HR [2, 20]: 0.52

Cc1c(OCC(F)(F)F)ccnc1C[S+]([O-])c1nc2ccccc2[nH]1 (centres unmarked) [lansoprazole]
Lansoprazole resistance (relative resistance factor) [3]: increased
Lansoprazole resistance (relative resistance factor) [4]: reduced
PARP1 expression [5]: dose-dependently reduced
NHEJ activity ([6]; MCF7, 10 µM twice a day for three days): significantly reduced
NHEJ activity with ectopic FASN over-expression ([6]; MCF7 cells over-expressing ectopic FASN): rescued NHEJ activity
NHEJ activity [7]: significantly reduced
Homologous recombination activity [8]: did not change
γ-H2AX level ([9]; MCF7, lansoprazole alone): increased γ-H2AX level in a dose-dependent manner
γ-H2AX level at 4 hrs post-IR versus 1 hr ([9]; MCF7, lansoprazole pre-treatment, 5 Gy IR): no reduction
Doxorubicin-induced γ-H2AX production ([9]; MCF7, lansoprazole with doxorubicin): synergistically increased
Lansoprazole-induced γ-H2AX increase with ectopic FASN over-expression ([9]; over-expressing ectopic FASN): ablated
γ-H2AX level ([10]; MDA-MB-468, lansoprazole alone): increased γ-H2AX level in a dose-dependent manner
γ-H2AX level at 4 hrs post-IR versus 1 hr ([10]; MDA-MB-468, lansoprazole pre-treatment, 5 Gy IR): no reduction
Doxorubicin-induced γ-H2AX production ([10]; MDA-MB-468, lansoprazole with doxorubicin): synergistically increased
Apoptosis [11]: dose-dependently induced apoptosis
Apoptosis ([12]; MDA-MB-468): dose-dependently induced apoptosis
Cell cycle arrest phase ([12]; MDA-MB-468, dose-dependent): S phase
Combination index [13]: < 1.0
Combination index [14]: < 1.0
Sensitization to IR treatment [15]: sensitized
Sensitization to IR treatment [16]: sensitized
Overall survival, univariate HR [2, 20]: 0.20

COc1ccc2[nH]c([S+]([O-])Cc3ncc(C)c(OC)c3C)nc2c1 (centres unmarked) [omeprazole]
Overall survival, multivariant HR ([2]; 40 mg users vs non-PPI users): 0.12
Overall survival, univariant HR ([2]; 40 mg users vs non-PPI users): 0.21
Overall survival, multivariant HR [2, 21]: 0.28
Overall survival, univariant HR [2, 21]: 0.33
Overall survival, univariate HR [2, 20]: 0.33
FASN activities in tumors [17]: inhibited
Toxicity [17]: without adding toxicity
pCR rate [17]: ~ 74%

COc1ccnc(C[S+]([O-])c2nc3ccc(OC(F)F)cc3[nH]2)c1OC (centres unmarked) [pantoprazole]
Overall survival, univariate HR [2, 20]: 0.43

CC12C[C@@]34C=CC(=O)[C@@](C)(CCC(=O)Nc5c(O)ccc(C(=O)O)c5O)C3[C@H](CC1C4)O2 (some centres unmarked) [platensimycin]
Insulin sensitivity ([18]; db/+ mice fed with high-fructose diet): improved insulin sensitivity
Ambient glucose levels ([18]; db/db mice): reduced ambient glucose levels
